For test [1], the target named is purified human Factor XIa (Homo sapiens (Human), UniProt P03951). The test can be described thus: Factor XIa enzyme inhibition assay (chromogenic substrate S-2366).
The target of test [2] is purified human plasma kallikrein (Homo sapiens (Human), UniProt P03952). The test can be described thus: Plasma kallikrein enzyme inhibition assay (chromogenic substrate S-2302). The test is classed as biochemical.
The mark [3] stands for this setting: read-out: Factor XIa Ki, measured at 25° C.
Setting [4] is: measured at 25° C. (no asterisk).
Setting [5] is: measured at 25° C. (no asterisk), TFA salt.
Setting [6] is: read-out: Factor XIa Ki, measured at 25° C., TFA salt.

Counter-ions that a name gives are not always drawn. Like-named read-outs stand apart in the source and are kept apart here.

purified human plasma kallikrein, sequence (P03952 391-638): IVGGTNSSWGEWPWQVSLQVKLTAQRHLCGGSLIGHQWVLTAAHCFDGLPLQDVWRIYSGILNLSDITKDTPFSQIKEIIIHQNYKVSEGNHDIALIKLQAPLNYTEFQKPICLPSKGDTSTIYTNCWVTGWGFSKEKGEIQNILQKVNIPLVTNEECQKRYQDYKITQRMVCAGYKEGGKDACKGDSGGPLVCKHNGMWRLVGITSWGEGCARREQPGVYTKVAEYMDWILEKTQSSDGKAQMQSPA
purified human plasma kallikrein, sequence (P03952 20-390 partner): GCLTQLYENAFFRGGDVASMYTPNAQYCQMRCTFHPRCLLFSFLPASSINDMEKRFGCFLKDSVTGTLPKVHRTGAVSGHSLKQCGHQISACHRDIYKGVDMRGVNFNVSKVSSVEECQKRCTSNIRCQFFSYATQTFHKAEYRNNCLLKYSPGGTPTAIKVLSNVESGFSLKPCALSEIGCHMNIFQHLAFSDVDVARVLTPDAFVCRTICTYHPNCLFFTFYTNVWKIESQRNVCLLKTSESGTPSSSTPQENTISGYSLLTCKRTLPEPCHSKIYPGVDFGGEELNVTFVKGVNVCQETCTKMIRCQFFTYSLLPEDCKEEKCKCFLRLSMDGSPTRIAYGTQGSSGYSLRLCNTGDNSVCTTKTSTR
purified human Factor XIa, sequence (P03951 388-625): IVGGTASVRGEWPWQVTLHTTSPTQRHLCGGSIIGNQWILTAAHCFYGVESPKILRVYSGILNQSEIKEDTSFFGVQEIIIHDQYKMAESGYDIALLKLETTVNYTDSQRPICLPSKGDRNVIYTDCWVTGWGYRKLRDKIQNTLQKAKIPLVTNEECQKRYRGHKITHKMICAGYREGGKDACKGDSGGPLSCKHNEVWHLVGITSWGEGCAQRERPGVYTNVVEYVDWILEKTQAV
purified human Factor XIa, sequence (P03951 19-387 partner): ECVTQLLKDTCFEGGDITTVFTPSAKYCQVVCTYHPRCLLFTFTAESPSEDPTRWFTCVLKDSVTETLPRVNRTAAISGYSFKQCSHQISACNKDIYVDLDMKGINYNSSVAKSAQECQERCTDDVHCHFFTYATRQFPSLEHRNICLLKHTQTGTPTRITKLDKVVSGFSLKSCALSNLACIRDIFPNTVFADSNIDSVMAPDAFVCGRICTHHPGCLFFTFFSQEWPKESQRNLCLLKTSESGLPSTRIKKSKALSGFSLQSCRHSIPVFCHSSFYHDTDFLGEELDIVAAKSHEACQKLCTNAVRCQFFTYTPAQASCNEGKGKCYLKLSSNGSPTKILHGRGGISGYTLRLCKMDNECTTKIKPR

Consider `CC(C)c1nnc2n1CCN(c1cccc3c1CCN(C(=O)[C@H]1CC(c4cccc(Cl)c4F)=NO1)[C@H]3C(=O)Nc1ccc(C(=O)O)cc1)C2` [Example 337, 4-((R)-2-((R)-3-(3-Chloro-2-fluorophenyl)-4,5-dihydroisoxazole-5-carbonyl)-5-(3-isopropyl-5,6-dihydro-[1,2,4]triazolo[4,3-a]pyrazin-7(8H)-yl)-1,2,3,4-tetrahydroisoquinoline-1-carboxamido)benzoic acid, TFA salt], for which the Ki in test [1] (setting [3]) was 27.9 nM; in test [2] (measured at 37° C. (*)) it was 68.1 nM.
Consider `O=C(O)c1ccc(NC(=O)C2c3cccc(OC4COC4)c3CCN2C(=O)c2cn(-c3cccc(Cl)c3F)nn2)cc1` (centres unmarked) [Example 123, 4-(2-(1-(3-Chloro-2-fluorophenyl)-1H-1,2,3-triazole-4-carbonyl)-5-(oxetan-3-yloxy)-1,2,3,4-tetrahydroisoquinoline-1-carboxamido)benzoic acid], for which the Ki in test [1] (setting [3]) worked out at 7.69 nM; in test [2] (measured at 37° C. (*)), 21.1 nM.
Regarding `COC(=O)c1ccc(NC(=O)[C@H]2c3cccc(-c4cncnc4)c3CCN2C(=O)[C@H]2CC(c3cccc(Cl)c3F)=NO2)cc1` [Example 29, Methyl 4-((R)-2-((R)-3-(3-chloro-2-fluorophenyl)-4,5-dihydroisoxazole-5-carbonyl)-5-(pyrimidin-5-yl)-1,2,3,4-tetrahydroisoquinoline-1-carboxamido)benzoate], the Ki in test [1] (setting [3]) is 58.9 nM; in test [2] (measured at 37° C. (*)) it was 1200 nM.
As to `COC1CCN(c2cccc3c2CCN(C(=O)c2cc(-c4cccc(Cl)c4F)ccn2)C3C(=O)Nc2ccc(C(=O)O)cc2)CC1` (centres unmarked) [Example 322, 4-(2-(4-(3-Chloro-2-fluorophenyl)picolinoyl)-5-(4-methoxypiperidin-1-yl)-1,2,3,4-tetrahydroisoquinoline-1-carboxamido)benzoic acid, 2 TFA salt], the Ki in test [1] (setting [3]) was found to be 8.21 nM; in test [2] (setting [4]), 138 nM.
`COC1CCN(c2cccc3c2CCN(C(=O)[C@H]2CC(c4cccc(Cl)c4F)=NO2)[C@@H]3C(=O)Nc2ccc(C(=O)O)cc2F)CC1` (single isomer, unassigned) [Example 243, TFA salt]: the Ki was < 5 nM in test [1] and 37.6 nM in test [2] (measured at 37° C. (*)).
Turning to `O=C(Nc1cccc2c1CCN(C(=O)c1cn(-c3cccc(Cl)c3F)nn1)C2C(=O)Nc1ccc(C(=O)O)cc1)NC1CCCC1` (centres unmarked) [Example 193, 4-(2-(1-(3-Chloro-2-fluorophenyl)-1H-1,2,3-triazole-4-carbonyl)-5-(3-cyclopentylureido)-1,2,3,4-tetrahydroisoquinoline-1-carboxamido)benzoic acid], the results for the Ki in test [1] (setting [3]) and in test [2] (setting [4]) were 19.9 nM and 2.34 nM, respectively.
For the molecule `Nc1ncc(-c2cccc3c2CCN(C(=O)c2cn(-c4cccc(Cl)c4F)nn2)C3C(=O)Nc2ccc(C(=O)O)cc2)cn1` (centres unmarked) [Example 30, 4-(5-(2-aminopyrimidin-5-yl)-2-(1-(3-chloro-2-fluorophenyl)-1H-1,2,3-triazole-4-carbonyl)-1,2,3,4-tetrahydroisoquinoline-1-carboxamido)benzoic acid, TFA salt], the Ki is < 5 nM in test [1] (setting [3]) and 15.7 nM in test [2] (setting [4]).
With `COC1CCN(c2cccc3c2CCN(C(=O)c2cncc(-c4cccc(Cl)c4F)c2)C3C(=O)Nc2ccc(C(=O)O)cc2)CC1` (centres unmarked) [Example 323, 4-(2-(5-(3-Chloro-2-fluorophenyl)nicotinoyl)-5-(4-methoxypiperidin-1-yl)-1,2,3,4-tetrahydroisoquinoline-1-carboxamido)benzoic acid, 2 TFA salt], the Ki was 5.28 nM in test [1] (setting [3]) and 99.2 nM in test [2] (setting [4]).
In the case of `CN1CCN(c2cccc3c2CCN(C(=O)c2cn(-c4cccc(Cl)c4)nc2C(F)(F)F)C3C(=O)Nc2ccc(C(=O)O)cc2)CC1` (centres unmarked) [Example 199, 4-(2-(1-(3-chlorophenyl)-3-(trifluoromethyl)-1H-pyrazole-4-carbonyl)-5-(4-methylpiperazin-1-yl)-1,2,3,4-tetrahydroisoquinoline-1-carboxamido)benzoic acid, 2 TFA salt], the Ki is 2300 nM in test [1] (setting [3]) and > 6000 nM in test [2] (measured at 37° C. (*)).
Regarding `CN(C)C(=O)C1CCN(c2cccc3c2CCN(C(=O)C2CC(c4cccc(Cl)c4F)=NO2)C3C(=O)Nc2ccc(C(=O)O)cc2)CC1` (single isomer, unassigned) [Example 279, 4-(2-(3-(3-chloro-2-fluoropheny)-4,5-dihydroisoxazole-5-carbonyl)-5-(4-(dimethylcarbamoyl)piperidin-1-yl)-1,2,3,4-tetrahydroisoquinoline-1-carboxamido)benzoic acid, TFA salt], the Ki is < 5 nM in test [1] (setting [3]) and 30.8 nM in test [2] (setting [5]).
For `CN(C)CCNC(=O)c1ccc(-c2cccc3c2CCN(C(=O)c2cn(-c4cccc(Cl)c4F)nn2)[C@H]3C(=O)Nc2ccc(C(=O)O)cc2)cc1` [Example 11, (R)-4-(2-(1-(3-Chloro-2-fluorophenyl)-1H-1,2,3-triazole-4-carbonyl)-5-(4-((2-(dimethylamino)ethyl)carbamoyl)phenyl)-1,2,3,4-tetrahydroisoquinoline-1-carboxamido)benzoic acid TFA salt], the figures for the Ki in test [1] (read-out: Factor XIa Ki) and in test [2] (setting [4]) were 165 nM and 1060 nM, respectively.
Turning to `COC1CCN(c2cccc3c2CCN(C(=O)C2CC(c4c(C(F)(F)F)ccc(Cl)c4F)=NO2)C3C(=O)Nc2ccc(C(=O)O)cc2)CC1` (centres unmarked) [Example 297, 4-(2-(3-(3-chloro-2-fluoro-6-(trifluoromethyl)phenyl)-4,5-dihydroisoxazole-5-carbonyl)-5-(4-methoxypiperidin-1-yl)-1,2,3,4-tetrahydroisoquinoline-1-carboxamido)benzoic acid, TFA salt], the values for the Ki in test [1] (setting [6]) and in test [2] (setting [5]) were 46.3 nM and 1280 nM, respectively.
Regarding `CC(C)c1nnc2n1CCN(C(=O)c1cn(-c3cccc(Cl)c3F)nn1)C2C(=O)Nc1ccc(C(=O)O)cc1` (centres unmarked) [Example 223, 4-(7-(1-(3-Chloro-2-fluorophenyl)-1H-1,2,3-triazole-4-carbonyl)-3-isopropyl-5,6,7,8-tetrahydro-[1,2,4]triazolo[4,3-a]pyrazine-8-carboxamido)benzoic acid], the Ki in test [1] (setting [3]) is 2630 nM; in test [2] (setting [4]), 3510 nM.
`COC1CCN(c2cccc3c2CCN(C(=O)c2cnn(-c4ccnc(C)c4)c2)C3C(=O)Nc2ccc(C(=O)O)cc2)CC1` (centres unmarked) [Example 327, 4-(5-(4-Methoxypiperidin-1-yl)-2-(1-(2-methylpyridin-4-yl)-1H-pyrazole-4-carbonyl)-1,2,3,4-tetrahydroisoquinoline-1-carboxamido)benzoic acid, TFA salt]: the figures for the Ki in test [1] (setting [3]) and in test [2] (measured at 37° C. (*)) were 816 nM and > 6000 nM, respectively.
As for `CC(C)(O)C1CCN(c2cccc3c2CCN(C(=O)C2CC(c4cccc(Cl)c4F)=NO2)C3C(=O)Nc2ccc(C(=O)O)cc2)CC1` (centres unmarked) [Example 263, 4-(2-(3-(3-chloro-2-fluorophenyl)-4,5-dihydroisoxazole-5-carbonyl)-5-(4-(2-hydroxypropan-2-yl)piperidin-1-yl)-1,2,3,4-tetrahydroisoquinoline-1-carboxamido)benzoic acid, TFA salt], the values for the Ki in test [1] (setting [6]) and in test [2] (setting [5]) were 11.5 nM and 68.1 nM, respectively.
`COC(=O)c1ccc2cc(NC(=O)C3c4cccc(-c5cncnc5)c4CCN3C(=O)c3cn(-c4cccc(Cl)c4F)nn3)ccc2n1` (centres unmarked) [Example 128, methyl 6-(2-(1-(3-chloro-2-fluorophenyl)-1H-1,2,3-triazole-4-carbonyl)-5-(pyrimidin-5-yl)-1,2,3,4-tetrahydroisoquinoline-1-carboxamido) quinoline-2-carboxylate, TFA salt]: the Ki in test [1] (setting [3]) was < 5 nM; in test [2] (measured at 37° C. (*)) it was 65.3 nM.
Regarding `COC1CCN(c2cccc3c2CCN(C(=O)[C@H]2CC(c4cccc(Cl)c4F)=NO2)[C@@H]3C(=O)Nc2cccnc2)CC1` (single isomer, unassigned) [Example 241, TFA salt], the Ki in test [1] amounted to 8.78 nM; in test [2] (measured at 37° C. (*)), 66.7 nM.
In the case of `CN(C)Cc1ccc(-c2cccc3c2CCN(C(=O)c2cn(-c4cccc(Cl)c4F)nn2)C3C(=O)Nc2ccc(C(=O)O)cc2)cc1` (centres unmarked) [Example 154, 4-(2-(1-(3-chloro-2-fluorophenyl)-1H-1,2,3-triazole-4-carbonyl)-5-(4-((dimethylamino)methyl)phenyl)-1,2,3,4-tetrahydroisoquinoline-1-carboxamido)benzoic acid, TFA salt], the Ki in test [1] (setting [3]) was < 5 nM; in test [2] (setting [4]), 5.26 nM.
With `CN(C)C1CCN(c2cccc3c2CCN(C(=O)c2cn(-c4cccc(Cl)c4F)nn2)C3C(=O)Nc2ccc(C(N)=O)cc2)CC1` (centres unmarked) [Example 99, N-(4-Carbamoylphenyl)-2-(1-(3-chloro-2-fluorophenyl)-1H-1,2,3-triazole-4-carbonyl)-5-(4-(dimethylamino)piperidin-1-yl)-1,2,3,4-tetrahydroisoquinoline-1-carboxamide, bis-TFA salt], the results for the Ki in test [1] (setting [3]) and in test [2] (setting [4]) were < 5 nM and 2.74 nM, respectively.
With `COC1CCN(c2cccc3c2CCN(C(=O)c2cnn(-c4cccnc4)c2)C3C(=O)Nc2ccc(C(=O)O)cc2)CC1` (centres unmarked) [Example 330, 4-(5-(4-methoxypiperidin-1-yl)-2-(1-(pyridin-3-yl)-1H-pyrazolc-4-carbonyl)-1,2,3,4-tetrahydroisoquinoline-1-carboxamido)benzoic acid, 2 TFA salt], the Ki in test [1] (setting [3]) is 3510 nM; in test [2] (measured at 37° C. (*)), > 6000 nM.
As to `CN1CCN(c2cccc3c2CCN(C(=O)c2cn(-c4cccc(Cl)c4F)nn2)C3C(=O)Nc2ccc(C(=O)O)cc2)CC1=O` (racemic) [Example 274, 4-(2-(1-(3-chloro-2-fluorophenyl)-1H-1,2,3-triazole-4-carbonyl)-5-(4-methyl-3-oxopiperazin-1-yl)-1,2,3,4-tetrahydroisoquinoline-1-carboxamido)benzoic acid, TFA salt], the results for the Ki in test [1] and in test [2] (setting [4]) were < 5 nM and 4.87 nM, respectively.
For the molecule `N#Cc1ncc(-c2cccc3c2CCN(C(=O)c2cn(-c4cccc(Cl)c4F)nn2)C3C(=O)Nc2ccc(C(=O)O)cc2)cn1` (centres unmarked) [Example 32, 4-(2-(1-(3-chloro-2-fluorophenyl)-1H-1,2,3-triazole-4-carbonyl)-5-(2-cyanopyrimidin-5-yl)-1,2,3,4-tetrahydroisoquinoline-1-carboxamido)benzoic acid], the values for the Ki in test [1] and in test [2] (setting [4]) were < 5 nM and 17.5 nM, respectively.
